Literature values in PMC2803438 (Current Chemical Genomics, 2008).

Assays:
Hsc70 [1] = conditions: read-out: Kd, binding to Hsc70; moderate affinity
Hsc70 [2] = conditions: read-out: IC50 for binding to Hsc70

N=C(N)NCCCCCCC(=O)NC(O)C(=O)NCCCCNCCCN (centres unmarked) [15-deoxyspergualin]
Kd (Hsc70 [1]): 500 nM

NIVRKKK
IC50 (Hsc70 [2]): 2800 nM
